Reference: article PMC9596378, “Discovery and molecular basis of subtype-selective cyclophilin inhibitors” (Nature Chemical Biology, 2022)
Where “and” joins values, the source holds several entries; their conditions need not be identical. Equal values may be shown once. Read-outs that look alike come from different tables or passages of the source.

What was measured:
[1] = target: CypD (Homo sapiens, UniProt P30405); experiment: Chymotrypsin coupled prolyl-isomerase assay; details: for selectivity for CypD against the remaining six cyclophilins / selectivity for CypD over CypA / selectivity for CypD over CypA and PPIL1 / selectivity for CypD over CypE and CypB: prolyl-isomerase IC50; for CypD prolyl-isomerase assay raw dose-response value: Fig. 3b source data, replicates
CypD, sequence (P30405 45-207): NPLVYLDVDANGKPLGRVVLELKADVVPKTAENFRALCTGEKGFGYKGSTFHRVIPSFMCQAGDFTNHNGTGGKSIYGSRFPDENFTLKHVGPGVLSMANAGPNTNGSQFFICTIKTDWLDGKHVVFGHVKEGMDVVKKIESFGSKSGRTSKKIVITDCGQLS

[2] = target: T1, PPWD1 (Homo sapiens, UniProt Q96BP3); experiment: Chymotrypsin coupled prolyl-isomerase assay; format: biochemical; details: for PPWD1 prolyl-isomerase assay raw dose-response value: Fig. 3b source data, replicates
T1 construct: PPWD1 (UniProtKB Entry Q96BP3: residues 473–646); host or cells: E. coli BL21(DE3)
T1 sequence (Q96BP3 473-646): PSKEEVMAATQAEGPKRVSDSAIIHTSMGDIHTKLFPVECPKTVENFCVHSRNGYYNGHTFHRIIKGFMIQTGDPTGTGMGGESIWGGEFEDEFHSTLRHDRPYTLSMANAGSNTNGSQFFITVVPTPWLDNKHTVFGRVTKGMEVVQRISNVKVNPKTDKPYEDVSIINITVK

[3] = target: T2, CypB E121S (Homo sapiens, UniProt P23284, E121S); experiment: biochemical
T2 construct: Lane 14- SNA-CypB E121S (34-216);; His6 tag with TEV site (2BT vector); SNA remnant stays on the N-terminus (N, cleaved yes); made in house; host or cells: E. coli BL21(DE3)
T2 sequence (P23284 34-216 E121S): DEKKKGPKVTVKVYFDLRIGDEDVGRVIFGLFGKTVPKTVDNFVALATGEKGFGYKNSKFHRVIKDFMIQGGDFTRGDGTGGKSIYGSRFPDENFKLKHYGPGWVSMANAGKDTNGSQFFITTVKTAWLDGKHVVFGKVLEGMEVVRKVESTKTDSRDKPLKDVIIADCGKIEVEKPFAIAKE
Outline: (§1)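 Recombinant cyclophilin (5 nM final) in 25 mM HEPES pH 7.3, 100 mM NaCl, 0.01% Triton X-100 was preincubated with compound at 2–3 °C. It was then coupled with 25 µM α-chymotrypsin and 5 µM Suc-AAPF-AMC (LiCl/TFE), and AMC fluorescence was followed for 330 s.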

[4] = target: T3, CypA E81S/K82R (Homo sapiens, UniProt P62937, E81S/K82R); experiment: Chymotrypsin coupled prolyl-isomerase assay; format: biochemical
T3 construct: Lane 12- SNA-CypA E81S/K82R (1-165);; His6 tag with TEV site (2BT vector); SNA remnant stays on the N-terminus (N, cleaved yes); made in house; host or cells: E. coli BL21(DE3)
T3 sequence (P62937 whole entry E81S/K82R): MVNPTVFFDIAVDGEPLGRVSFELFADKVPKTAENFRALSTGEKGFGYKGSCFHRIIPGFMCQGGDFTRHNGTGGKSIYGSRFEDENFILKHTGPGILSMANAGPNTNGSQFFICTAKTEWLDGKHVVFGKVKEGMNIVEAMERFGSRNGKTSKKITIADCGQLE
Outline: as §1

[5] = target: T4, CypD S123E (Homo sapiens, UniProt P30405, S123E); experiment: Chymotrypsin coupled prolyl-isomerase assay; format: biochemical; details: prolyl-isomerase inhibition
T4 construct: made in house; host or cells: E. coli BL21(DE3)
T4 sequence (P30405 45-207 S123E): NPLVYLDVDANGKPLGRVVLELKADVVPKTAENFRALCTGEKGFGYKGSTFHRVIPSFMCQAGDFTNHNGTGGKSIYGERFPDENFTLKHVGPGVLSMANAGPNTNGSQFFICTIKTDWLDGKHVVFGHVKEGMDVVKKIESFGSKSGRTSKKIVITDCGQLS
Outline: as §1

[6] = target: T5, CypD K118A (Homo sapiens, UniProt P30405, K118A); experiment: Chymotrypsin coupled prolyl-isomerase assay; format: biochemical; details: prolyl-isomerase inhibition
T5 construct: made in house; host or cells: E. coli BL21(DE3)
T5 sequence (P30405 45-207 K118A): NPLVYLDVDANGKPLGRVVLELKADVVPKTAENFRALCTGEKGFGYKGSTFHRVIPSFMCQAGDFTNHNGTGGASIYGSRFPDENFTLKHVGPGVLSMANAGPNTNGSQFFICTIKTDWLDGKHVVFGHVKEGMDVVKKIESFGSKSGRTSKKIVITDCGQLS
Outline: as §1

[7] = target: T6, CypD R124K (Homo sapiens, UniProt P30405, R124K); experiment: Chymotrypsin coupled prolyl-isomerase assay; format: biochemical; details: mutant CypD R124K; read-out: Mutant Cyclophilin Prolyl Isomerase Inhibition IC50 Values, CypD R124K
T6 construct: made in house; host or cells: E. coli BL21(DE3)
T6 sequence (P30405 45-207 R124K): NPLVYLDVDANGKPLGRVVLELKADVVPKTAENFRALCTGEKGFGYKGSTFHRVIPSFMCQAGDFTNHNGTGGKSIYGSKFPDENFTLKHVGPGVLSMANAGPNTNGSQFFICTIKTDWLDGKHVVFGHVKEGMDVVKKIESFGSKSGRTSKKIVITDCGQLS
Outline: as §1

[8] = target: Cyp40 (Homo sapiens, UniProt Q08752); experiment: Chymotrypsin coupled prolyl-isomerase assay; details: for Cyp40 prolyl-isomerase assay raw dose-response value: Fig. 3b source data, replicates
Cyp40, sequence (Q08752 1-183): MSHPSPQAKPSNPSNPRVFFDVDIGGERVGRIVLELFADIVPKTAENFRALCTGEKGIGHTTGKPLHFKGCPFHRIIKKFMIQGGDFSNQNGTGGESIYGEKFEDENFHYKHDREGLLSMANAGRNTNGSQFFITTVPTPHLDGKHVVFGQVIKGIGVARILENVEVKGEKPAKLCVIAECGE
Outline: as §1

[9] = IC50 CypD, Independent replicate 1, mean±SEM of 3 technical replicates
[10] = IC50 CypD, Independent replicate 2
[11] = IC50 CypD, Independent replicate 3
[12] = IC50 CypD, Independent replicate 4
[13] = Independent replicate 1, read-out: IC50 PPWD1
[14] = Independent replicate 2, read-out: IC50 PPWD1
[15] = Independent replicate 3, read-out: IC50 PPWD1
[16] = Independent replicate 4, read-out: IC50 PPWD1
[17] = prolyl-isomerase inhibition, 5 nM cyclophilin, read-out: IC50 PPWD1
[18] = wild-type PPWD1, read-out: Wild-Type Cyclophilin Prolyl Isomerase Inhibition IC50 Values, PPWD1
[19] = prolyl-isomerase inhibition, read-out: IC50 CypB E121S
[20] = prolyl-isomerase inhibition, read-out: IC50 CypA E81S/K82R
[21] = IC50 Cyp40, Independent replicate 1
[22] = IC50 Cyp40, Independent replicate 2
[23] = IC50 Cyp40, Independent replicate 3
[24] = IC50 Cyp40, Independent replicate 4
[25] = Wild-Type Cyclophilin Prolyl Isomerase Inhibition IC50 Values, Cyp40, wild-type Cyp40

`NCCOCCNC(=O)[C@@H]1CCNC(=O)/C=C/C(=O)N2CCC[C@](Cc3ccccc3)(C2)C(=O)N[C@@H](Cc2ccc(-c3ccc(C(CC(=O)O)CC(=O)O)cc3)cc2)C(=O)NCc2ccccc2CC(=O)N1` [Compound B53] gave an IC50 [1] of 0.057 µM, an IC50 [1, 9] of 0.04 ± 0.01 µM and an IC50 [1, 10] of 0.05 ± 0.02 µM. The IC50 [1, 11] was 0.06 ± 0.02 µM, the IC50 [1, 12] was 0.06 ± 0.03 µM and the “selectivity for CypD against the remaining six cyclophilins” value [1] was > 900 fold. For the same compound, the “selectivity for CypD over CypA” value [1] was > 100 fold and 100 fold, the “selectivity for CypD over CypA and PPIL1” value [1] was 60- to 900 fold and the “selectivity for CypD over CypE and CypB” value [1] was 15- to 30 fold. The IC50 [2, 13] was > 50 µM, the IC50 [2, 14] was > 50 µM and the IC50 [2, 15] was > 50 µM. The IC50 [2, 16] was > 50 µM, the IC50 [2, 17] was > 50 µM and the IC50 [2, 18] was > 50 µM. The IC50 [3, 19] was 0.05 µM, the IC50 [4, 20] was 0.18 µM and the IC50 [5] was 0.8 µM. For the same compound, the IC50 [6] was 0.9 µM, the IC50 [7] was 0.1 µM and the IC50 [8, 21] was > 50 µM. The IC50 [8, 22] was > 50 µM, the IC50 [8, 23] was > 50 µM and the IC50 [8, 24] was > 50 µM. For the same compound, the IC50 ([8]; IC50 Cyp40, prolyl-isomerase inhibition, 5 nM cyclophilin) was > 50 µM and the IC50 [8, 25] was > 50 µM.
`NCCOCCNC(=O)[C@@H]1CCNC(=O)/C=C/C(=O)N2CCC[C@](Cc3ccccc3)(C2)C(=O)N[C@@H](Cc2ccc(-c3ccc(CC(C(=O)O)C(=O)O)cc3)cc2)C(=O)NCc2ccccc2CC(=O)N1` [Compound B52] was tested, and the IC50 [1] was 0.01 ± 0.004 µM, the IC50 [1, 9] was 0.01 ± 0.002 µM and the IC50 [1, 10] was 0.011 ± 0.004 µM. It also gave an IC50 [1, 11] of 0.011 ± 0.005 µM, an IC50 [1, 12] of 0.01 ± 0.005 µM and an IC50 ([1]; IC50 CypD, prolyl-isomerase inhibition) of 0.01 µM. For the same compound, the IC50 ([1]; Wild-Type Cyclophilin Prolyl Isomerase Inhibition IC50 Values, CypD, wild-type CypD) was 0.01 µM, the “selectivity for CypD against the remaining six cyclophilins” value [1] was > 900 fold and the “selectivity for CypD over CypA” value [1] was > 100 fold and 100 fold. The “selectivity for CypD over CypA and PPIL1” value [1] was 60- to 900 fold, the “selectivity for CypD over CypE and CypB” value [1] was 15- to 30 fold and the IC50 ([1]; read-out: IC50 CypD, prolyl-isomerase inhibition, 5 nM cyclophilin, Suc-AAPF-AMC, mean±s.e.m. of 3 technical replicates (B52, B53, C3A wild-type: mean±s.d. of 4 independent replicates)) was 0.01 µM. For the same compound, the IC50 [2, 13] was > 100 µM, the IC50 [2, 14] was > 100 µM and the IC50 [2, 15] was > 100 µM. For the same compound, the IC50 [2, 16] was > 100 µM, the IC50 [2, 17] was > 100 µM and the IC50 ([2]; prolyl-isomerase inhibition, read-out: IC50 PPWD1) was > 100 µM. For the same compound, the IC50 [2, 18] was > 100 µM, the IC50 [3, 19] was 0.008 µM and the IC50 [4, 20] was 0.027 µM. For the same compound, the IC50 [5] was 0.24 µM, the IC50 [6] was 0.073 µM and the IC50 [7] was 0.02 µM. It also gave an IC50 [8, 21] of 13 ± 5 µM, an IC50 [8, 22] of 30 ± 20 µM and an IC50 [8, 23] of 20 ± 10 µM. It also gave an IC50 [8, 24] of 20 ± 10 µM and an IC50 [8, 25] of 22 µM.
`NCCOCCNC(=O)[C@@H]1CCNC(=O)/C=C/C(=O)N2CCC[C@](Cc3ccccc3)(C2)C(=O)N[C@@H](Cc2ccc(-c3ccc(CCC(=O)O)cc3)cc2)C(=O)NCc2ccccc2CC(=O)N1` [Compound B23] was tested, and the IC50 [1] was 0.0078 µM, the “CypD prolyl-isomerase assay raw dose-response value” ([1]; Dose 0.000457247 µM) was 0.08239 and 0.08493 and 0.09684 and the “CypD prolyl-isomerase assay raw dose-response value” ([1]; Dose 0.00137174 µM) was 0.07973 and 0.07546 and 0.07833. For the same compound, the “CypD prolyl-isomerase assay raw dose-response value” ([1]; Dose 0.00411523 µM) was 0.06213 and 0.06183 and 0.0629, the “CypD prolyl-isomerase assay raw dose-response value” ([1]; Dose 0.0123457 µM) was 0.03857 and 0.03915 and 0.03469 and the “CypD prolyl-isomerase assay raw dose-response value” ([1]; Dose 0.037037 µM) was 0.02379 and 0.02491 and 0.0225. For the same compound, the “CypD prolyl-isomerase assay raw dose-response value” ([1]; Dose 0.111111 µM) was 0.01572 and 0.01536 and 0.01393, the “CypD prolyl-isomerase assay raw dose-response value” ([1]; Dose 0.333333 µM) was 0.01408 and 0.01283 and 0.01168 and the “CypD prolyl-isomerase assay raw dose-response value” ([1]; Dose 1 µM) was 0.01156 and 0.01128 and 0.01193. The “selectivity for CypD over CypE and CypB” value [1] was ~ 3 fold, the “PPWD1 prolyl-isomerase assay raw dose-response value” ([2]; Dose 0.0201875 µM) was 0.05033 and 0.05427 and 0.05661 and the “PPWD1 prolyl-isomerase assay raw dose-response value” ([2]; Dose 0.0605624 µM) was 0.05286 and 0.05252 and 0.05358. The “PPWD1 prolyl-isomerase assay raw dose-response value” ([2]; Dose 0.181687 µM) was 0.05234 and 0.04225 and 0.05023, the “PPWD1 prolyl-isomerase assay raw dose-response value” ([2]; Dose 0.545062 µM) was 0.05186 and 0.04473 and 0.04345 and the “PPWD1 prolyl-isomerase assay raw dose-response value” ([2]; Dose 1.63519 µM) was 0.04986 and 0.04682 and 0.05314. The “PPWD1 prolyl-isomerase assay raw dose-response value” ([2]; Dose 4.90556 µM) was 0.03903 and 0.03772 and 0.04075, the “PPWD1 prolyl-isomerase assay raw dose-response value” ([2]; Dose 14.7167 µM) was 0.03486 and 0.03306 and 0.03245 and the “PPWD1 prolyl-isomerase assay raw dose-response value” ([2]; Dose 44.15 µM) was 0.02892 and 0.02371 and 0.02381. It also gave an IC50 [2, 18] of 11 µM, an IC50 ([3]; mutant CypB E121S, read-out: Mutant Cyclophilin Prolyl Isomerase Inhibition IC50 Values, CypB E121S) of 0.008 µM and an IC50 ([4]; mutant CypA E81S/K82R, read-out: Mutant Cyclophilin Prolyl Isomerase Inhibition IC50 Values, CypA E81S/K82R) of 0.023 µM. It also gave an IC50 [5] of 0.023 µM, an IC50 [6] of 0.07 µM and an IC50 [7] of 0.0029 µM. For the same compound, the “Cyp40 prolyl-isomerase assay raw dose-response value” ([8]; Dose 0.0201875 µM) was 0.0705 and 0.08875 and 0.06706, the “Cyp40 prolyl-isomerase assay raw dose-response value” ([8]; Dose 0.0605624 µM) was 0.06428 and 0.07232 and 0.08253 and the “Cyp40 prolyl-isomerase assay raw dose-response value” ([8]; Dose 0.181687 µM) was 0.08019 and 0.07121 and 0.08682. The “Cyp40 prolyl-isomerase assay raw dose-response value” ([8]; Dose 0.545062 µM) was 0.05956 and 0.06358 and 0.0778, the “Cyp40 prolyl-isomerase assay raw dose-response value” ([8]; Dose 1.63519 µM) was 0.04659 and 0.04863 and 0.05555 and the “Cyp40 prolyl-isomerase assay raw dose-response value” ([8]; Dose 4.90556 µM) was 0.02767 and 0.03026 and 0.03081. For the same compound, the “Cyp40 prolyl-isomerase assay raw dose-response value” ([8]; Dose 14.7167 µM) was 0.0182 and 0.01915 and 0.02408, the “Cyp40 prolyl-isomerase assay raw dose-response value” ([8]; Dose 44.15 µM) was 0.01601 and 0.01375 and 0.01814 and the IC50 [8, 25] was 1.7 µM.
